Key:
[1] = tested on: human peripheral blood mononuclear cells (PBMCs); experiment: Human PBMC activation assay, cytokine levels (IL-10, IL-6, MCP-1, TNF-α) in supernatant after 24 hours (Example 9); conditions: human PBMC supernatant after 24 hours
dog SMAD7 mRNA = experiment: Pharmacology: dog SMAD7 mRNA expression in liver, kidney, duodenum, ileum and colon after subcutaneous administration in beagle dogs (Example 8); type: in vivo; conditions: 30 mg/kg subcutaneous, necropsy, normalized to HPRT1
In short: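 Beagle dogs, 4 per group, dosed subcutaneously with human ASOs complementary to dog SMAD7; liver, kidney, duodenum, ileum and colon collected at necropsy. SMAD7 mRNA quantified with primer-probe set RTS34649, normalized to HPRT1; one-way ANOVA with Dunnett's test.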

[2] = Hematology assays after subcutaneous administration in CD-1 mice (Example 6); type: in vivo; parameters: RBC / Eosinophils / Monocytes: unit not given here; conditions: 50 mg/kg subcutaneous twice weekly for 7 weeks
In short: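 Male CD-1 mice, 8-9 weeks old, 4 per group, given oligonucleotides 50 mg/kg s.c. twice weekly (100 mg/kg/week) for 7 weeks; PBS group as control. Blood analysed on an automated hematology analyzer for blood cell counts and other markers; plasma collected day 28.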

[3] = Organ weights after subcutaneous administration in CD-1 mice (Example 6); type: in vivo; conditions: end of study, 50 mg/kg subcutaneously twice a week for 7 weeks
In short: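 Male CD-1 mice aged 8-9 weeks, 4 per group, were dosed subcutaneously twice weekly for 7 weeks with 50 mg/kg oligonucleotide (100 mg/kg/week), with PBS controls. Organ weights were assessed, and plasma was collected on day 28.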

[4] = Oligonucleotide concentrations in tissues by LC-MS/MS after oral gavage in CD-1 mice (Example 7); type: in vivo; conditions: 500 mg/kg oral gavage once daily for 4 weeks, 48 hours after last dose
Protocol: Groups of 7-8 week old male CD-1 mice were given an oral gavage dose once daily for 4 weeks of 500 mg/kg of Ionis SMAD7 oligonucleotides. Each group contained 8 mice. One group of male CD-1 mice was administered saline by oral gavage daily.
Oligonucleotide concentrations were detected in various tissues by LC-MS/MS analysis. The greatest concentration was found in the kidney, followed by the colon.

[5] = Body and organ weights after oral gavage in CD-1 mice (Example 7); type: in vivo; conditions: 500 mg/kg oral gavage once daily for 4 weeks, end of study
In short: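 Male CD-1 mice, 7-8 weeks old (8 per group), received SMAD7 antisense oligonucleotides at 500 mg/kg by oral gavage once daily for 4 weeks, with a saline-gavage control group. Final body weights and organ weights were recorded at study end.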

[6] = Plasma chemistry markers after subcutaneous administration in CD-1 mice (Example 6); type: in vivo; conditions: CD-1 mice plasma at day 46; 50 mg/kg subcutaneously twice a week for 7 weeks
[7] = Plasma chemistry markers after subcutaneous administration in beagle dogs (Example 8); conditions: 30 mg/kg subcutaneous days 1, 3, 5, 8, 15, 22, 29, plasma at day 31
[8] = Blood chemistry markers after oral gavage in CD-1 mice (Example 7); type: in vivo; conditions: 500 mg/kg oral gavage once daily for 4 weeks, day 30
In short: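 Male CD-1 mice, 7-8 weeks old, 8 per group, dosed by oral gavage once daily for 4 weeks with 500 mg/kg human SMAD7 antisense oligonucleotide; saline-gavaged group as control. Plasma transaminases, albumin and BUN measured on a clinical chemistry analyzer.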

With “830121 (AGAATCAAGCCCTGGC; 3-10-3 cEt gapmer, further chemistry not given here) [compound 830121]” the “Levels of IL-6” value ([1]; 0.0128 μM oligonucleotide) was 4.1 pg/mL, the “Levels of IL-10” value ([1]; 0.0128 μM oligonucleotide) was 2.0 pg/mL and the “Levels of MCP-1” value ([1]; 0.0128 μM oligonucleotide) was 324.5 pg/mL. For the same substance, the “Levels of TNF-α” value ([1]; 0.0128 μM oligonucleotide) was 3.0 pg/mL, the “Levels of IL-6” value ([1]; 0.064 μM oligonucleotide) was 4.9 pg/mL and the “Levels of IL-10” value ([1]; 0.064 μM oligonucleotide) was 1.3 pg/mL. The “Levels of MCP-1” value ([1]; 0.064 μM oligonucleotide) was 370.4 pg/mL, the “Levels of TNF-α” value ([1]; 0.064 μM oligonucleotide) was 3.5 pg/mL and the “Levels of IL-6” value ([1]; 0.32 μM oligonucleotide) was 4.4 pg/mL. For the same substance, the “Levels of IL-10” value ([1]; 0.32 μM oligonucleotide) was 1.3 pg/mL, the “Levels of MCP-1” value ([1]; 0.32 μM oligonucleotide) was 336.4 pg/mL and the “Levels of TNF-α” value ([1]; 0.32 μM oligonucleotide) was 3.1 pg/mL. For the same substance, the “Levels of IL-6” value ([1]; 1.6 μM oligonucleotide) was 5.4 pg/mL, the “Levels of IL-10” value ([1]; 1.6 μM oligonucleotide) was 3.1 pg/mL and the “Levels of MCP-1” value ([1]; 1.6 μM oligonucleotide) was 501.8 pg/mL. For the same substance, the “Levels of TNF-α” value ([1]; 1.6 μM oligonucleotide) was 3.6 pg/mL, the “Levels of IL-6” value ([1]; 8 μM oligonucleotide) was 7.5 pg/mL and the “Levels of IL-10” value ([1]; 8 μM oligonucleotide) was 3.7 pg/mL. The “Levels of MCP-1” value ([1]; 8 μM oligonucleotide) was 717.1 pg/mL, the “Levels of TNF-α” value ([1]; 8 μM oligonucleotide) was 4.8 pg/mL and the “Levels of IL-6” value ([1]; 40 μM oligonucleotide) was 14.3 pg/mL. For the same substance, the “Levels of IL-10” value ([1]; 40 μM oligonucleotide) was 2.2 pg/mL, the “Levels of MCP-1” value ([1]; 40 μM oligonucleotide) was 1225.2 pg/mL and the “Levels of TNF-α” value ([1]; 40 μM oligonucleotide) was 9.4 pg/mL. For the same substance, the “Levels of IL-6” value ([1]; 200 μM oligonucleotide) was 35.2 pg/mL, the “Levels of IL-10” value ([1]; 200 μM oligonucleotide) was 1.4 pg/mL and the “Levels of MCP-1” value ([1]; 200 μM oligonucleotide) was 411.0 pg/mL. For the same substance, the “Levels of TNF-α” value ([1]; 200 μM oligonucleotide) was 14.2 pg/mL, the “% inhibition of SMAD7 mRNA expression (compared to control), Distal colon” value (dog SMAD7 mRNA; distal colon) was 21% and the “% inhibition of SMAD7 mRNA expression (compared to control), Duodenum” value (dog SMAD7 mRNA; duodenum) was 55%. The “% inhibition of SMAD7 mRNA expression (compared to control), Ileum” value (dog SMAD7 mRNA; ileum) was 0%, the “% inhibition of Smad7 mRNA expression (compared to control), Kidney” value (dog SMAD7 mRNA; kidney) was 39% and the “% inhibition of Smad7 mRNA expression (compared to control), Liver” value (dog SMAD7 mRNA; liver) was 0%. For the same substance, the “% inhibition of SMAD7 mRNA expression (compared to control), Proximal colon” value (dog SMAD7 mRNA; proximal colon) was 20%, the Eosinophils [2] was 3.5 and the Hematocrit [2] was 40.4%. It also gave a Hemoglobin [2] of 13.6 g/dL, a Lymphocytes [2] of 75.3% and an MCH [2] of 15.3 pg. For the same substance, the MCHC [2] was 33.6 g/dL, the MCV [2] was 45.5 fL and the Monocytes [2] was 5.1. The Neutrophils [2] was 15.8%, the RBC [2] was 8.9 and the Reticulocytes [2] was 4.5%. The WBC [2] was 10.1 10^3/μL, the platelets [2] was 765.0 10^3/μL and the Basophils ([2]; n.d. = below detection levels) was 0.3 10^3/μL. For the same substance, the “Organ weights, Kidneys” value [3] was 0.6 g, the “Organ weights, Liver” value [3] was 2.4 g and the “Organ weights, Spleen” value [3] was 0.2 g. The “Oligonucleotide concentration, Colon” value ([4]; colon) was 2.7 µg/g, the “Oligonucleotide concentration, Duodenum” value ([4]; duodenum) was 0.4 µg/g and the “Oligonucleotide concentration, Ileum” value ([4]; ileum) was 1.1 µg/g. The “Oligonucleotide concentration, Kidney” value ([4]; kidney) was 13.2 µg/g, the “Oligonucleotide concentration, Liver” value ([4]; liver) was 0.9 µg/g and the Body weight [5] was 34 g. The Heart weight [5] was 0.17 g, the Kidneys weight [5] was 0.61 g and the “Liver with gallbladder weight” value [5] was 1.92 g. It also gave a Spleen weight [5] of 0.10 g, an ALT [6] of 198 IU/L and an AST [6] of 151 IU/L. It also gave an Albumin [6] of 1.9 g/dL, a BUN [6] of 21 mg/dL and an ALT [7] of 1454 IU/L. It also gave an AST [7] of 383 IU/L, an Albumin [7] of 3.0 g/dL and a BUN [7] of 20.0 mg/dL. For the same substance, the Bilirubin [7] was 2.6 mg/dL, the Creatine [7] was 0.9 mg/dL and the ALT [8] was 45 IU/L. The AST [8] was 75 IU/L, the Albumin [8] was 3.3 g/dL and the BUN [8] was 24 mg/dL. For the same substance, the Bilirubin [8] was 0.2 mg/dL.

Source: patent US10517889B2, “Modulators of SMAD7 expression” (Ionis Pharmaceuticals, Inc., priority 2017, dated 2019)
